# In the supplement of paper PMC10307832:
# Tests used:
# Experiment in all cases: relative viability (nuclei count vs DMSO), 5 days (fraction); higher = more cells survive
# [1] = compound: NC(=O)[C@@H](CCC(F)(F)F)N(Cc1ccc(-c2ncon2)cc1F)S(=O)(=O)c1ccc(Cl)cc1 [Avagacestat] + COc1cc2c(Oc3ccc(NC(=O)C4(C(=O)Nc5ccc(F)cc5)CC4)cc3F)ccnc2cc1OCCCN1CCOCC1 [Foretinib] (partner 0.25 µM)
# Procedure, shortened: (§1)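 Dosing by pin tool came one day after lung cancer cell lines were seeded in 1536-well plates, using either one drug or a fixed anchor-drug dose plus five library-drug doses (not always all listed) in √10 steps. After 5 days, nuclei were counted on 4× images. Relative viability is treated-well nuclei count divided by vehicle-well nuclei count, and values are medians of duplicate plates.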
# [2] = compound: NC(=O)[C@@H](CCC(F)(F)F)N(Cc1ccc(-c2ncon2)cc1F)S(=O)(=O)c1ccc(Cl)cc1 [Avagacestat] + O=C(CCCCCCC(=O)Nc1ccccc1)NO [Vorinostat] (partner 1 µM)
# Procedure, shortened: as §1
# [3] = compound: NC(=O)[C@@H](CCC(F)(F)F)N(Cc1ccc(-c2ncon2)cc1F)S(=O)(=O)c1ccc(Cl)cc1 [Avagacestat] + CS(=O)(=O)N1CCN(Cc2cc3nc(-c4cccc5[nH]ncc45)nc(N4CCOCC4)c3s2)CC1 [Pictilisib] (partner 1 µM)
# Procedure, shortened: as §1
# [4] = compound: NC(=O)[C@@H](CCC(F)(F)F)N(Cc1ccc(-c2ncon2)cc1F)S(=O)(=O)c1ccc(Cl)cc1 [Avagacestat] + NC(=O)Nc1cc(-c2cccc(F)c2)sc1C(=O)N[C@H]1CCCNC1 [AZD7762] (partner 0.2 µM)
# Procedure, shortened: as §1
Cell Line,relative viability ([1]; first compound 0.08 µM),relative viability ([1]; first compound 0.253 µM),relative viability ([1]; first compound 0.8 µM),relative viability ([1]; first compound 2.53 µM),relative viability ([1]; first compound 8 µM),relative viability ([2]; first compound 0.08 µM),relative viability ([2]; first compound 0.253 µM),relative viability ([2]; first compound 0.8 µM),relative viability ([2]; first compound 2.53 µM),relative viability ([2]; first compound 8 µM),relative viability ([3]; first compound 0.08 µM),relative viability ([3]; first compound 0.253 µM),relative viability ([3]; first compound 0.8 µM),relative viability ([3]; first compound 2.53 µM),relative viability ([3]; first compound 8 µM),relative viability ([4]; first compound 0.08 µM),relative viability ([4]; first compound 0.253 µM),relative viability ([4]; first compound 0.8 µM),relative viability ([4]; first compound 2.53 µM),relative viability ([4]; first compound 8 µM)
NCI-H520,0.755,0.753,0.731,0.657,0.629,0.8,0.767,0.773,0.637,0.639,0.302,0.291,0.274,0.229,0.205,–,–,–,–,–
NCI-H1793,0.686,0.693,0.854,0.473,0.619,0.841,0.985,0.773,0.865,0.993,0.381,0.325,0.326,0.413,0.27,0.619,0.474,0.373,0.346,0.228
NCI-H2347,1.22,1.07,0.931,0.842,0.977,0.599,0.646,0.78,0.499,0.522,0.467,0.688,0.849,0.387,0.624,0.707,0.783,0.743,0.696,0.587
HARA,1.1,1.39,0.863,0.867,0.77,0.572,0.551,0.524,0.716,0.549,0.368,0.517,0.417,0.342,0.373,0.303,0.276,0.332,0.24,0.184
NCI-H1915,1.21,1.26,1.21,1.06,1.03,0.56,0.633,0.522,0.477,0.479,0.962,1.05,0.949,1,0.93,0.694,0.72,0.74,0.806,0.678
NCI-H1734,0.932,0.934,0.839,0.771,0.835,0.876,0.901,0.829,0.761,0.824,0.538,0.483,0.462,0.419,0.418,0.612,0.65,0.641,0.5,0.592
NCI-H2342,1.22,1.05,0.924,1.02,0.939,0.845,0.822,0.842,0.705,0.774,–,–,–,–,–,0.479,0.536,0.589,0.499,0.438
CAL-12T,1.35,1.25,1.24,1.02,1.16,0.918,1.1,0.796,0.729,0.798,0.734,0.47,0.719,0.624,0.48,0.703,0.703,0.782,0.61,0.569
PC-14,1.1,1.08,1.1,0.956,0.817,0.774,0.725,0.808,0.589,0.619,1.06,0.627,0.673,0.544,0.539,0.53,0.568,0.581,0.39,0.392
NCI-H2087,1.11,1.39,1.09,1.09,1.23,1.14,0.914,1.07,0.771,0.68,0.905,1.04,1.27,0.896,0.955,1.41,1.65,1.31,1.24,1.18
NCI-H1395,0.981,0.946,0.903,0.899,0.846,0.64,0.519,0.719,0.429,0.63,0.601,0.735,0.658,0.488,0.702,0.407,0.365,0.369,0.412,0.333
NCI-H1648,–,–,–,–,–,0.512,0.374,0.31,0.35,0.276,–,–,–,–,–,0.603,0.564,0.548,0.46,0.48
NCI-H596,1,0.831,0.85,0.809,0.84,0.591,0.643,0.609,0.588,0.627,0.414,0.43,0.395,0.354,0.374,1.21,1.14,1.17,0.971,1.05
A549,1.01,1.15,1.01,1.01,0.878,–,–,–,–,–,0.795,0.632,0.458,0.462,0.403,–,–,–,–,–
LC-2-ad,1,1.03,0.914,0.854,0.868,0.73,0.847,0.74,0.654,0.595,0.569,0.41,0.518,0.382,0.269,0.947,0.927,0.843,0.761,0.616
EKVX,0.859,0.742,1.08,0.798,0.795,0.826,0.783,0.904,0.75,0.68,0.443,0.528,0.523,0.393,0.435,0.699,0.779,0.818,0.633,0.624
ChaGo-K-1,0.935,1,0.856,0.825,0.786,0.783,0.874,0.79,0.755,0.692,0.701,0.675,0.924,1.09,0.801,0.896,0.855,0.818,0.794,0.733
NCI-H1792,–,–,–,–,–,–,–,–,–,–,0.252,0.315,0.264,0.24,0.21,0.726,0.942,0.706,0.65,0.345
